Publication PMC5295395, “Inhibition of PlexA1-mediated brain tumor growth and tumor-associated angiogenesis using a transmembrane domain targeting peptide” (Oncotarget, 2016)

Experiments:
HUVEC cells = assay: pseudo-tube formation assay, HUVEC on matrigel; format: cell-based, human; conditions: 10^−7 M, 5 h, vs vehicle; p = 0.0087
From the text: We observed PlexA1 positive blood vessels in the tissue array of GBM samples (Figure 5A). […] To address this possibility we first used a transgenic zebra-fish model tg(kdrl:eGFP) highlighting the endothelial cells. This allowed us to assess the angiogenic activities in vivo by analyzing formation of intersegmental vessels (ISVs) after morpholino-based knockdown of the target.
Figure 5 MTP-PlexA1 inhibits developmental and tumor-specific PlexA1 pro-angiogenic role (A) Microphotographs illustrating the expression of PlexA1 in vascular-like structures in human glioma tissues. (Scale bar: 40 μm). (B) Morpholino-based PlexA1 knockdown in Zebrafish tg(kdrl:eGFP) line. Representative images of control, Plexin-A1 mismatch and Pexin-A1 knockdown embryos (plxna1MO) are shown 28 hours post fertilization (28hpf). […] (E) Live-monitoring of VEGF-induced HUVEC cell migration assay using the XCelligence system (transwell assay). (F) Microphotographs illustrating the expression of PlexA1 in blood vessels of the chick chorioallontoic membrane (upper left picture). Microphotographs (middle and lower left pictures) and camera lucida drawing (middle and lower right pictures) showing representative fields of observation after 24 h incubation with VEGF (100 ng/ml, +vehicle) or VEGF + MTP-PlexA1 (10^−7 M). The number of VEGF-induced new blood vessels is shown in the graph. […]

PlexA4-PlexA1 complex = assay: co-immunoprecipitation of Plexin-A4 with PlexA1 in U373MG cells; format: cell-based, human; conditions: 10^−7 M peptide 1 h
Experimental: (C) Rac-1 activation assay in resting condition and after Sema3A-induced Rac-1 activation in U373 MG cells. (D) Western blot analysis of phosphorylated Akt, total Akt and tubulin in U373MG cells treated with the vehicle (LDS 72 μM), Sema3A (100 ng/ml) or Sema3A + MTP-PlexA1 (10^−7 M). The lower panel is showing the quantification of the p-Akt/Akt ratio in the different conditions. (E) MTP-PlexA1 decreases VEGFR-2 phosphorylation induced by VEGF (100 ng/ml) in HUVEC cells. […]
in 20 mM sodium acetate (pH 4.5) at a flow rate of 5 μl/ min 10–7 M of MTP-PlexA1 or Vehicle (LDS, 72 µM) during until desired surface densities, measured in response 1 h. Stimulation was done with 100ng/ml Semaphorin 3A units, were reached. […] First antibodies (Rabbit anti-phospho-the elution buffer containing detergent removed non- akt, Rabbit anti-akt, Cell Signaling #4060 and #9272 biotinylated peptides rendering the chip ready for analysis respectively) and mouse anti-tubulin α (Cell Signaling with monomeric biot-MTP-PlexA1. Blank surfaces were #2144) were incubated overnight at 4°C (+ anti-NRP1, used for background corrections. Injections of 30 µl anti-PlexA4 Abcam). […] Images of the immuno-blots cells per well in a 6-well plate and serum starved overnight. were acquired and analyzed thanks to the GENE GNOME Before protein extraction, the cells were treated either with apparatus (Syngene Bio Imaging, UK).

With “TLPAIVGIGGGGGLLLLVIVAVLIAYKRK [MTP-PlexA1, synthetic transmembrane peptide mimicking the TMD of PlexA1]” the “change of tube-like structures (HUVEC on matrigel)” value (HUVEC cells) was −68%, the “change of PlexA4 co-immunoprecipitated with PlexA1, Sema3A-induced” value (PlexA4-PlexA1 complex; Sema3A 100 ng/ml 30 min) was −35.5% and the “reduction of PlexA4 co-immunoprecipitated with PlexA1, VEGF” value (PlexA4-PlexA1 complex; VEGF 100 ng/ml 10 min) was 35.4%.
